Reference: US20250154144A1 (CHILDREN'S HOSPITAL MEDICAL CENTER, priority 2021, published 2025)
Where two headings read alike, the source gives them in different places.

What was measured:
FLT3 = target: T1, FLT3 (Homo sapiens, UniProt P36888); assay: RBC HotSpot Kinase Assay, FLT3
T1 sequence (P36888 610-943 limits assumed): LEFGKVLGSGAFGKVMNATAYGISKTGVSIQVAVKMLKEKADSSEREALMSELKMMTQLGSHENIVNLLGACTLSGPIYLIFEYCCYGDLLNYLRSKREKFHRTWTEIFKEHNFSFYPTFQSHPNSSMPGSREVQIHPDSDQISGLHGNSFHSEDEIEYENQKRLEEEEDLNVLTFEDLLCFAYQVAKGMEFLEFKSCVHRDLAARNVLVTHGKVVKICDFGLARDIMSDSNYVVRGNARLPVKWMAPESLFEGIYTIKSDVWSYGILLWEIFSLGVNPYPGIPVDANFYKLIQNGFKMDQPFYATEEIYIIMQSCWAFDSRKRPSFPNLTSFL

IRAK1 = IRAK1 (Homo sapiens, UniProt P51617); assay: RBC HotSpot Kinase Assay, IRAK1; conditions: IRAK1 IC50
FLT3 ITD = target: T2, FLT3 ITD (Homo sapiens, UniProt P36888); assay: DiscoverX KINOMEscan competition binding, FLT3 ITD; conditions: read-out: FLT3 ITD Kd
T2 sequence (P36888 1-993): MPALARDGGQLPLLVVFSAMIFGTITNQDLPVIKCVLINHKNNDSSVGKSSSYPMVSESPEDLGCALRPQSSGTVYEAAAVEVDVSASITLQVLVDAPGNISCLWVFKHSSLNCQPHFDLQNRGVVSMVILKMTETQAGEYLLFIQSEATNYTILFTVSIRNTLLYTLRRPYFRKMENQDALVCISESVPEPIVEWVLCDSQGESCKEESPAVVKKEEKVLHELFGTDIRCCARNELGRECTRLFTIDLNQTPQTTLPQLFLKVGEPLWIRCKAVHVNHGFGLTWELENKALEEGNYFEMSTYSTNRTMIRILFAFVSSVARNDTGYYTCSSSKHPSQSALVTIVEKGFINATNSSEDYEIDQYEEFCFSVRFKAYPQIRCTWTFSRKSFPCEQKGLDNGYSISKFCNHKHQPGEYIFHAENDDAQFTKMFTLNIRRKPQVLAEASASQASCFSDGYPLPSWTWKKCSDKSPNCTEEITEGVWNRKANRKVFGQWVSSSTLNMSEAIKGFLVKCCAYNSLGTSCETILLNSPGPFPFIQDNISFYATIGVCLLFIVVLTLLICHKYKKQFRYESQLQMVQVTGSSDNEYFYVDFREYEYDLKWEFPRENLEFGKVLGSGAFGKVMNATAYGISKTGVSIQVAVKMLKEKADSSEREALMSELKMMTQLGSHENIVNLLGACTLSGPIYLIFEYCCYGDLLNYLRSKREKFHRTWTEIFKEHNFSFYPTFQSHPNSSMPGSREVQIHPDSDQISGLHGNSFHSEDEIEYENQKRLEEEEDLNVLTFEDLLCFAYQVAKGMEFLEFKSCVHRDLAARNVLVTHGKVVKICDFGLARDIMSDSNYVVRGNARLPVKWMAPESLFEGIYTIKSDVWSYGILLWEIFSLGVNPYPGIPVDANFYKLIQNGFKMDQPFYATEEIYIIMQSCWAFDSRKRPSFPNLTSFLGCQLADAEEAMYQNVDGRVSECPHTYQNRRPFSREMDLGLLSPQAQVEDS

FLT3 Autoinh. = target: T3, FLT3 Autoinh. (Homo sapiens, UniProt P36888); assay: DiscoverX KINOMEscan competition binding, FLT3 Autoinh.
T3 construct: purchased DiscoverX (KINOMEscan)
T3 sequence (P36888 564-993 limits assumed): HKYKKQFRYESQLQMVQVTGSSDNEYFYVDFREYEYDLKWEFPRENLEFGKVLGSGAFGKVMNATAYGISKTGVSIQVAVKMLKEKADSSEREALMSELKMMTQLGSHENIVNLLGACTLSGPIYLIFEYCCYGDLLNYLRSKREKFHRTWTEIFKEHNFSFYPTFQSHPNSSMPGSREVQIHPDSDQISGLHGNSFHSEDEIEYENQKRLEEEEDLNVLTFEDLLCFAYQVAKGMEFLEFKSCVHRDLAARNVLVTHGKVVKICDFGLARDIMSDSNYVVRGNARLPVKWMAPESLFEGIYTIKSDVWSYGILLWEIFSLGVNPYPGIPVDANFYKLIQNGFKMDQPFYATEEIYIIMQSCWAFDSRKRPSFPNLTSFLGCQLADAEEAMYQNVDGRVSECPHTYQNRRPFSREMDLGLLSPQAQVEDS

FLT3 K663Q = target: T4, FLT3 K663Q (Homo sapiens, UniProt P36888, K663Q); assay: DiscoverX KINOMEscan competition binding, FLT3 K663Q
T4 construct: purchased DiscoverX (KINOMEscan)
T4 sequence (P36888 27-993 K663Q): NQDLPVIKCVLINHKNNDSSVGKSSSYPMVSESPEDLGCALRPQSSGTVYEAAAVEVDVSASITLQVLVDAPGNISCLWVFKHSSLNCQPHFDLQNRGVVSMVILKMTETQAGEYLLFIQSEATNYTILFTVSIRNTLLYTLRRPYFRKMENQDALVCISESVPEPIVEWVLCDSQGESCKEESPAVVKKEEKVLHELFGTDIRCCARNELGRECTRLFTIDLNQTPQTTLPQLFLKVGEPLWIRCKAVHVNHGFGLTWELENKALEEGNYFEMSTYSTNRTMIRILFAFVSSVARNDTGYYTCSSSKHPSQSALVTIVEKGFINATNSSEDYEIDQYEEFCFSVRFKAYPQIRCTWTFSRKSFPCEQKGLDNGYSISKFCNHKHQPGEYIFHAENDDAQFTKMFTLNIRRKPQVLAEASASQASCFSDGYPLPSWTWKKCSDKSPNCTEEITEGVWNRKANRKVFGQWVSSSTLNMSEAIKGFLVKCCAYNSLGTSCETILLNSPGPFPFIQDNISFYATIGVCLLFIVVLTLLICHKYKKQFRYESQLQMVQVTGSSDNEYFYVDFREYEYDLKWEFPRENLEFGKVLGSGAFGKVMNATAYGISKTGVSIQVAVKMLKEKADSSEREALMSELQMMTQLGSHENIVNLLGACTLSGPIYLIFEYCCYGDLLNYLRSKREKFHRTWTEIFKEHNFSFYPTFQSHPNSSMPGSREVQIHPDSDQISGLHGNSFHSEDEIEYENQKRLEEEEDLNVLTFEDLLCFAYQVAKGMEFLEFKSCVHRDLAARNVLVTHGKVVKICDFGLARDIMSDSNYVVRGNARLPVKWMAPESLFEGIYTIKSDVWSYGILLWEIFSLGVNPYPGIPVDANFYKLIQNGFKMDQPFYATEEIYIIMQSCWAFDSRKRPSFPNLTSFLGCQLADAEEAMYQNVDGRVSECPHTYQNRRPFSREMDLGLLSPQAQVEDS

IRAK1, sequence (P51617 whole entry): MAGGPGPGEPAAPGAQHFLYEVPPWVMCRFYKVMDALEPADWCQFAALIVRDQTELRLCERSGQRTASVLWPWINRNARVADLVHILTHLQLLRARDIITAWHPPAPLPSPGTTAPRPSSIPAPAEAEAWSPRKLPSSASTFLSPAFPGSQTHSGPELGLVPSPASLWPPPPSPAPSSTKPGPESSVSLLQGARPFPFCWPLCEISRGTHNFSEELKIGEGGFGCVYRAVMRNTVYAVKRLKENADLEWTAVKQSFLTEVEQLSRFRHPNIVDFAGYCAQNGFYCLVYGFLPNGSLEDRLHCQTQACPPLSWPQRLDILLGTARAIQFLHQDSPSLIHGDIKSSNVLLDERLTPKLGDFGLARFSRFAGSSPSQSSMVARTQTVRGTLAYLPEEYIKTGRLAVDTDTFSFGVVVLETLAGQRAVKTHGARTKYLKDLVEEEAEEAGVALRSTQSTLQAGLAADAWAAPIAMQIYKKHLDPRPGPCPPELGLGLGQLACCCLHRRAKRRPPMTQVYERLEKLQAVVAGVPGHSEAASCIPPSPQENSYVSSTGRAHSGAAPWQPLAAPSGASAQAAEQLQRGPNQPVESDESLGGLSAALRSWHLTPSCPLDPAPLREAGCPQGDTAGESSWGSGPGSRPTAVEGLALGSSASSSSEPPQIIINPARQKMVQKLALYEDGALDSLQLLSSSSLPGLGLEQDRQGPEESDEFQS

COc1cc2ncc(-c3ccnc(N[C@H]4CNCC[C@@H]4F)n3)n2nc1C1CC1 [Compound 51, 4-(6-cyclopropyl-7-methoxyimidazo[1,2-b]pyridazin-3-yl)-N-((3S,4S)-4-fluoropiperidin-3-yl)pyrimidin-2-amine]
IC50 (FLT3; FLT3 IC50): < 0.5 nM | IC50 (IRAK1): 11 nM | Kd (FLT3 ITD): 2 nM | Kd (FLT3 Autoinh.): 40 nM | Kd (FLT3 K663Q): 0.82 nM

COc1cc2ncc(-c3ccnc(N[C@H]4CNC[C@@H]4F)n3)n2nc1C1CC1 [Compound 49, 4-(6-cyclopropyl-7-methoxyimidazo[1,2-b]pyridazin-3-yl)-N-((3S,4S)-4-fluoropyrrolidin-3-yl)pyrimidin-2-amine]
IC50 (FLT3; FLT3 IC50): < 0.5 nM | IC50 (IRAK1): 11 nM | Kd (FLT3 ITD): 0.59 nM | Kd (FLT3 Autoinh.): 16 nM | Kd (FLT3 K663Q): 2.2 nM

CC(O)(c1cn2c(-c3ccnc(N[C@H]4CNCC[C@@H]4F)n3)cnc2cn1)C(F)(F)F (single isomer, unassigned) [Compound 72]
IC50 (FLT3; read-out: FLT3 IC50): < 0.5 nM | IC50 (IRAK1): 3 nM | Kd (FLT3 ITD): 0.62 nM | Kd (FLT3 Autoinh.): 25 nM | Kd (FLT3 K663Q): 21 nM

COc1cc2ncc(-c3cncc(N[C@H]4CNCC[C@@H]4F)n3)n2nc1C1CC1 [Compound 24, 6-(6-cyclopropyl-7-methoxyimidazo[1,2-b]pyridazin-3-yl)-N-((3S,4S)-4-fluoropiperidin-3-yl)pyrazin-2-amine]
IC50 (FLT3; FLT3 IC50): < 0.5 nM | IC50 (IRAK1): 40 nM | Kd (FLT3 ITD): 0.97 nM | Kd (FLT3 Autoinh.): 25 nM | Kd (FLT3 K663Q): 3.8 nM

COc1cc2ncc(-c3cncc(N[C@H]4CNC[C@@H]4F)n3)n2nc1C1CC1 [Compound 22, 6-(6-cyclopropyl-7-methoxyimidazo[1,2-b]pyridazin-3-yl)-N-((3S,4S)-4-fluoropyrrolidin-3-yl)pyrazin-2-amine]
IC50 (FLT3; FLT3 IC50): < 0.5 nM | IC50 (IRAK1): 61 nM | Kd (FLT3 ITD): 0.67 nM | Kd (FLT3 Autoinh.): 33 nM | Kd (FLT3 K663Q): 18 nM

F[C@H]1CCNC[C@@H]1Nc1cncc(-c2cnc3cc(OC4CC4)ccn23)n1 [Compound 12, 6-(7-cyclopropoxyimidazo[1,2-a]pyridin-3-yl)-N-((3S,4S)-4-fluoropiperidin-3-yl)pyrazin-2-amine]
IC50 (FLT3; FLT3 IC50): < 0.5 nM | IC50 (IRAK1): 18 nM | Kd (FLT3 ITD): 0.87 nM | Kd (FLT3 K663Q): 13 nM

COc1cc2ncc(-c3ccnc(N[C@@H]4CCCNC4)n3)n2cc1C(C)(C)O [Compound 44, (R)-2-(7-methoxy-3-(2-(piperidin-3-ylamino)pyrimidin-4-yl)imidazo[1,2-a]pyridin-6-yl)propan-2-ol]
IC50 (FLT3; FLT3 IC50): < 0.5 nM | IC50 (IRAK1): 1 nM | Kd (FLT3 ITD): 0.42 nM | Kd (FLT3 Autoinh.): 2.3 nM | Kd (FLT3 K663Q): 2.9 nM

COc1cc2ncc(-c3ccnc(N[C@@H]4CCCNC4)n3)n2nc1C1CC1 [Compound 50, (R)-4-(6-cyclopropyl-7-methoxyimidazo[1,2-b]pyridazin-3-yl)-N-(piperidin-3-yl)pyrimidin-2-amine]
IC50 (FLT3; FLT3 IC50): < 0.5 nM | IC50 (IRAK1): 63 nM
